Source: patent publication US6998233B2, “Methods for ligand discovery” (Sunesis Pharmaceuticals, Inc., priority 1998, dated 2006)
Where two headings read alike, the source gives them in different places.

Key:
E. coli TS = E. coli TS (Escherichia coli, UniProt P0A884); test: Thymidylate synthase inhibition, enzymatic assay (Michaelis-Menten kinetics) on tether-free analogs; format: biochemical
Excerpt: TS is an ideal validating target for several reasons. […] Second, a simple colorimetric assay exists for determining whether a potential ligand binds to TS. This assay depends on the rate of conversion of 5,10-CH2—H4folate to H2folate in the presence of dUMP. A second assay for binding is also spectrophotometric and relies on competition with pyridoxal-5′-phosphate (“PLP”), which forms a complex with TS with a unique spectral signature.
The TS chosen for the purposes of illustration is the E. coli TS. […] The E. coli TS includes four other cysteines but these are not conserved among other TS enzymes and are buried and thus not accessible. However, if one or more of these cysteines were reactive toward disulfides, then mutant versions of these enzymes can be used where these cysteines are mutated to another amino acid such as alanine.
In one illustrative example, the tethering experiment is performed in the presence of a known substrate. […] In contrast, a ligand candidate that lacks an inherent binding affinity or cysteamine would be easily displaced by the substrate. Another illustrative example is traditional enzymatic assays on the tether-free analog. For example, the affinity of the [drawing 14] R^c portion of the ligand fragment was determined using Michaelis-Mention kinetics.
The inhibition constants of the untethered versions of the selected ligand candidates were determined.

caspase-3 [1] = molecular target: T1, caspase-3 (Homo sapiens, UniProt P42574); test: Modification of caspase-3 with extender (mass-spectroscopy); format: binding; conditions: ambient temperature, 3.5 hours
T1 sequence (P42574 29-175 limits assumed): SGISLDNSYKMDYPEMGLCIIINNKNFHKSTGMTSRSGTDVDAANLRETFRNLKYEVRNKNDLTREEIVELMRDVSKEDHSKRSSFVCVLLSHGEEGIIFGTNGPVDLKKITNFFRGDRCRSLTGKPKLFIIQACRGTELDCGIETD
T1 sequence (P42574 176-277 limits assumed): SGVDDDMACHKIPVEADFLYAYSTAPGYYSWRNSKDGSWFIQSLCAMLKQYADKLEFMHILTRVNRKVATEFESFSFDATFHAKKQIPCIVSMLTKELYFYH
Excerpt: (§1) This example describes the modification of caspase-3 with extender 13. Caspase-3 was cloned, overexpressed, and purified using standard techniques. […] The protein was concentrated in a Ultrafree 5 MWCO unit and the buffer exchanged to 0.1 M TES pH 7.5 using a Nap-5 column.

caspase-3 [2] = molecular target: T1, caspase-3; test: Caspase-3 inhibition (Ki); format: biochemical; conditions: for change of binding affinity relative to compound 18: removal of hydroxyl group / hydroxyl and acid moiety
[3] = format: physicochemical
Method: The thiirane (17 mg, 0.047 mmol) was dissolved in dry DCM (5 ml), chilled in an ice-water bath, and treated with 5 ml trifluoroacetic acid. The reaction was allowed to proceed on ice for 40 minutes at which point it was evaporated to dryness and purified using reverse phase HPLC to yield compound 40 as a white solid (1.8 mg, 0.0058 mmol, 13%, ES (+) MS m/z=332 (M+Na)). […] It is generally preferred that the conjugation reaction of this extender to the active site thiol of caspases is performed for only 2–5 minutes at pH 6 and at low stoichiometries with respect to enzyme (1–3 equivalents)

[4] = molecular target: T2, target-extender complex 13′ (caspase-3 modified with extender 13) (Homo sapiens, UniProt P42574); test: Tethering with extender, target-extender complex 13′; format: binding; conditions: library of about 10,000 ligand candidates
T2 construct: made in house
T2 sequence (P42574 29-175): T1 sequence (P42574 29-175 limits assumed)
T2 sequence (P42574 176-277): T1 sequence (P42574 176-277 limits assumed)
Excerpt: (§2) Target-extender complexes 13′ and 14′ were each used in the tethering method against a library of about 10,000 ligand candidates. An illustrative example of a selected ligand-candidate using target-extender complex 13′ is [drawing 39]
as §1

[5] = molecular target: T3, target-extender complex 14′ (caspase-3 modified with extender 14) (Homo sapiens, UniProt P42574); test: Tethering with extender, target-extender complex 14′; format: binding; conditions: library of about 10,000 ligand candidates
T3 construct: made in house
T3 sequence (P42574 29-175): T1 sequence (P42574 29-175 limits assumed)
T3 sequence (P42574 176-277): T1 sequence (P42574 176-277 limits assumed)
Excerpt: as §2

[6] = untethered versions of selected ligand candidates, Example 6
[7] = Table 2, glutamate-grafted N-tosyl-proline derivatives

Chain of E. coli TS (P0A884 whole entry): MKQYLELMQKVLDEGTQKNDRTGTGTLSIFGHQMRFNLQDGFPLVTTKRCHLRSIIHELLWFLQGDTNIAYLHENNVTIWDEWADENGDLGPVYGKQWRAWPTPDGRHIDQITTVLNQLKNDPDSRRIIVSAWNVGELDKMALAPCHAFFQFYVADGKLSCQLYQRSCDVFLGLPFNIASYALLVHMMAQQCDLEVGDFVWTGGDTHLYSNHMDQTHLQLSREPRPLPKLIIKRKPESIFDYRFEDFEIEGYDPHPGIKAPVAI

**Q.** Which mode of inhibition (E. coli TS; competed with the natural substrate dUMP) does the source give for `Cc1ccc(S(=O)(=O)N2CCC[C@@H]2C(=O)O)cc1` [compound 1, N-tosyl-D-proline] here?
**A.** weak but competitive inhibitor

**Q.** What about the Ki (E. coli TS; free acid, Michaelis-Menten kinetics) of the same compound?
**A.** 1100 ± 250 µM

**Q.** Which Ki (E. coli TS; [6]) does the source give for `O=C(O)COc1ccc(/C=N/OCCCO/N=C/c2ccc(S(=O)(=O)N3CCCC3C(=O)O)cc2)cc1` (stereo not shown) [compound 2] here?
**A.** ~55 µM

**Q.** With `O=C(O)COc1ccc(/C=N\OCCCCCCO/N=C/c2ccc(S(=O)(=O)N3CCCC3C(=O)O)cc2)cc1` (stereo not shown) [compound 3] as the compound, how does the Ki (E. coli TS; [6]) read?
**A.** ~40 µM

**Q.** With `O=C(O)C[C@H](NC(=O)c1ccc(S(=O)(=O)N2CCCC2C(=O)O)cc1)C(=O)O` (stereo partly shown) [compound 6] as the compound, how does the Ki (E. coli TS; [7]) read?
**A.** 242 ± 3 µM

**Q.** For `O=C(O)CCC[C@H](NC(=O)c1ccc(S(=O)(=O)N2CCCC2C(=O)O)cc1)C(=O)O` (stereo partly shown) [compound 7], which Ki (E. coli TS; [7]) is on record?
**A.** 23 ± 6 µM

**Q.** With `O=C(O)CCCC[C@H](NC(=O)c1ccc(S(=O)(=O)N2CCCC2C(=O)O)cc1)C(=O)O` (stereo partly shown) [compound 8] as the compound, how does the Ki (E. coli TS; [7]) read?
**A.** 32 ± 2 µM

**Q.** With `O=C(O)CCCCC[C@H](NC(=O)c1ccc(S(=O)(=O)N2CCCC2C(=O)O)cc1)C(=O)O` (stereo partly shown) [compound 9] as the compound, how does the Ki (E. coli TS; [7]) read?
**A.** 14 ± 6 µM

**Q.** For `NC(=O)[C@H](CCC(=O)O)NC(=O)c1ccc(S(=O)(=O)N2CCCC2C(=O)O)cc1` (stereo partly shown) [compound 10], which Ki (E. coli TS; [7]) is on record?
**A.** 378 ± 69 µM

**Q.** For `NC(=O)CC[C@H](NC(=O)c1ccc(S(=O)(=O)N2CCCC2C(=O)O)cc1)C(=O)O` (stereo partly shown) [compound 11], which Ki (E. coli TS; [7]) is on record?
**A.** 61 ± 14 µM

**Q.** With `O=C(O)CCCNC(=O)c1ccc(S(=O)(=O)N2CCCC2C(=O)O)cc1` (stereo not shown) [compound 12] as the compound, how does the Ki (E. coli TS; [7]) read?
**A.** 246 ± 46 µM

**Q.** Which “modification of caspase 3 large subunit” value (caspase-3 [1]) does the source give for `CC(=O)SCC(=O)N[C@@H](CC(=O)O)C(=O)COC(=O)c1c(Cl)cccc1Cl` [compound 13, 2,6-Dichloro-benzoic acid 3-(2-acetylsulfanyl-acetylamino)-4-carboxy-2-oxo-butyl ester] here?
**A.** complete modification

**Q.** Which Ki (caspase-3 [2]; Table 4) does the source give for `O=C[C@H](CC(=O)O)NC(=O)CCCCCNS(=O)(=O)c1cccc(C(=O)O)c1` [compound 19] here?
**A.** 15.3 µM

**Q.** And the “change of binding affinity relative to compound 18” value (caspase-3 [2])?
**A.** reduced the affinity by a factor of five

**Q.** What does the source list for `O=C[C@H](CC(=O)O)NC(=O)CCCCCNS(=O)(=O)c1ccccc1` [compound 20]?
**A.** Ki (caspase-3 [2]; Table 4): > 100 µM; change of binding affinity relative to compound 18 (caspase-3 [2]): ablated binding affinity entirely

**Q.** What does the source list for `O=C[C@H](CC(=O)O)NC(=O)c1ccc(CNS(=O)(=O)c2ccc(O)c(C(=O)O)c2)cc1` [compound 21]?
**A.** Ki (caspase-3 [2]): ~0.16 µM; Ki better than compound 18 (caspase-3 [2]): more than 10 fold; Ki (caspase-3 [2]; Table 4): 0.16 µM; improvement of binding by addition of the salicylate sulfonamide (caspase-3 [2]; versus salicylate sulfonamide-less fragment): about 200 fold

**Q.** Which Ki (caspase-3 [2]) does the source give for `CS(=O)(=O)c1ccc(C(=O)NCCCS(=O)(=O)Cc2cccc(S(=O)(=O)N[C@H](C=O)CC(=O)O)c2)s1` [compound 22] here?
**A.** 0.33 µM

**Q.** For `O=C(O)C[C@H](NC(=O)OCc1ccccc1)C(=O)C1CS1` (stereo partly shown) [compound 40], which “stability as solution in methanol” value [3] is on record?
**A.** stable for months

**Q.** What about the “stability in DMSO” value [3] of the same compound?
**A.** not stable

**Q.** For `CC(=O)N[C@@H](CCC(=O)O)C(=O)N[C@H](C(=O)N[C@H](C=O)CC(=O)O)C(C)C` [compound I, reference compound], which Ki (caspase-3 [2]) is on record?
**A.** 0.051 µM

**Q.** Which “decrease in binding affinity versus compound I” value (caspase-3 [2]; addition of salicylate sulfonamide moiety to compound I) does the source give for `CC(C)[C@H](NC(=O)[C@H](CCC(=O)O)NS(=O)(=O)c1ccc(O)c(C(=O)O)c1)C(=O)N[C@H](C=O)CC(=O)O` [compound II] here?
**A.** ~300 fold

**Q.** With `NCCSSCCNS(=O)(=O)c1ccc(O)c(C(=O)O)c1` [ligand candidate 15] as the compound, how does the selection in tethering [4] read?
**A.** selected

**Q.** What about the selection in tethering [5] of the same compound?
**A.** not selected

**Q.** Which results are given for `CS(=O)(=O)c1ccc(C(=O)NCCSSCCN)s1` [ligand candidate 16]?
**A.** selection in tethering [4]: not selected; selection in tethering [5]: selected

**Q.** With `NCCSSCCNS(=O)(=O)c1cccc(C(=O)O)c1` [ligand candidate 17] as the compound, how does the selection in tethering [4] read?
**A.** not selected

**Q.** What about the selection in tethering [5] of the same compound?
**A.** not selected
